Among the data in ChEMBL document CHEMBL4834421, “Deconstructing Noncovalent Kelch-like ECH-Associated Protein 1 (Keap1) Inhibitors into Fragments to Reconstruct New Potent Compounds” (J Med Chem, 2021) are Stabilty, half-life and permeability values, retold here.

The conditions of data set [1]: human, plasma, 3 h, 20 µM.
A short description of the next data set: in vitro. To be noted: CD1, mouse.
The conditions of data set [2]: pampa, 5 h.
Data set [3] is described as follows: Stability of compound in human plasma assessed as half life at 20 uM incubated for 3 hrs by LC-MS (SIM) assay. It counts as ADME, cell-free.

Where only a bound is given, the exact number is not on record here.

On to `CCCCC1CCCN1C(=O)[C@@H]1CCC[C@H](c2cccc(-n3ncc(C(=O)O)c3C3CC3)c2)C1` (some centres not stated), for which the Stabilty result in data set [1] is recorded as “Stable”.

In the case of `O=C(O)CN(c1cccc(-n2ncc(C(=O)O)c2C2CC2)c1)S(=O)(=O)c1ccccc1`, the half-life at 4 h, 10 µM in the data set “in vitro” (liver microsomes) came out at 4 h. Further, in data set [2], the permeability is on record as under 2%.

`O=C(O)c1cnn(-c2cccc(NS(=O)(=O)c3ccccc3)c2)c1C1CC1` registered a half-life at 4 h, 10 µM in “in vitro” (liver microsomes) of 4 h. Also, in data set [2], the permeability is under 2%. The Stabilty entry in data set [1] is recorded as “Stable”.

Regarding `CNC(=O)c1cnn(-c2cccc(NS(=O)(=O)c3ccccc3)c2)c1C1CC1`, the permeability in data set [2] is reported as under 2%.

`COc1cccc(S(=O)(=O)N(CC(=O)O)c2cccc(-n3ncc(C(=O)O)c3[C@H]3C[C@@H]3c3ccccc3)c2)c1` (relative stereo): the half-life at 4 h, 10 µM in the data set “in vitro” (liver microsomes) is 4 h. In data set [2], this compound yielded a permeability of under 2%. For the same compound, the Stabilty result in data set [1] was “Stable”.

Turning to `CCN(CC)CCOC(=O)c1ccc(N)cc1` [PROCAINE], the half-life at 20 µM in data set [3] is 2 min.

In the data set “in vitro” (microsomes), `CC(C)NCC(O)COc1cccc2ccccc12` (configuration not stated) [PROPRANOLOL] displayed a half-life at 4 h, 10 µM of 0.617 h.

What is called half-life is the time in which the quantity being followed falls by half.
